US8415342B2, “Besifloxacin ophthalmic composition for the treatment or control of infection” (Bausch & Lomb Incorporated, priority 2008, dated 2013)
pIC50: −log10 of the molar value. In brackets after ≈: the same amount, converted by molar mass.

Legend:
[1] = tested on: baseline pathogens of bacterial conjunctivitis patients; assay: MIC of baseline clinical trial isolates, Studies 373, 433, 434 (all species); type: cell-based
[2] = Safety pharmacology: in vivo cardiovascular effects after systemic dosing
Description: The in vivo cardiovascular effects, specifically, an increase in QT duration, following besifloxacin systemic dosing were only observed after doses that were at least 300 times the intended ocular daily dose. There was no change in heart rate, blood pressure, or cardiac conduction.

[3] = tested on: genetically concordant pathogens of Visit 2 or Visit 3; assay: Resistance development: PFGE and MIC testing of concordant isolate pairs from baseline and follow-up visits; type: cell-based
Description: PFGE testing was performed per standard procedures.
Isolate pairs from eyes with the same species at or above threshold at both baseline and follow-up visits were evaluated by Pulsed Field Gel Electrophoresis (PFGE) analysis to (i) distinguish new infections from recurrence and (ii) determine if any microbial eradication failures were correlated with antimicrobial resistance development during the study period.

[4] = Nonclinical ocular tolerance, QID dosing for 28 days; type: in vivo
Description: ERG measurements were included in the studies due to the known retinal toxicity associated with some fluoroquinolones.

S. pneumoniae = assay: In vitro multistep selection for besifloxacin-resistant mutants; type: cell-based; conditions: for MIC: Streptococcus pneumoniae
Description: (§1) Furthermore, an experiment was conducted to assess the mechanism of action of besifloxacin in S. pneumoniae, S. aureus, and E. coli via step selections for isolates with decreased susceptibility to besifloxacin, as well as by testing for altered susceptibilities of ciprofloxacin-resistant variants of all three species containing genetically defined mutations in the quinolone resistance determining regions (QRDRs) of structural genes encoding DNA gyrase and topoisomerase IV (Table 2).
(§2) Besifloxacin is a potent antibacterial agent by virtue of its efficient biochemical inhibition of type II bacterial topoisomerases at low micromolar levels. Besifloxacin was associated with a low mutant prevention concentration (MPC), especially in the two Gram-positive pathogens, S. aureus and S. pneumoniae, in which the MPCs were only four times higher than the MICs for those organisms. Correspondingly, very few drug-resistant mutants were obtained in in vitro experiments for those two species (<1 mutant per 10^10 cells).
(§3) As a consequence, strains with high-level resistance would only emerge if both targets were mutated simultaneously, an event that is not very likely in strains that lack predisposing mutations. A dual-targeting mechanism of action for besifloxacin is supported by the following experimental evidence: • In S. aureus and S. pneumoniae, single (1st step) mutants were extremely rare (<1/10^10 cells) and only few or no double (2nd step) mutants were obtained (Table 3). • Single mutations in the gyrA or in the parC gene were obtained in S. aureus as well as in S. pneumoniae. […] By comparison, all single mutations in quinolone-resistant strains of E. coli were mapped to either the gyrA or the gyrB gene consistent with the general finding that quinolones primarily target the DNA gyrase in Gram-negative bacteria. • Biochemical experiments with the purified DNA gyrase and topoisomerase IV enzymes from S. pneumoniae and E. coli were performed.

S. aureus = assay: as above; type: cell-based; conditions: for MIC: Staphylococcus aureus
Description: as §1, §2, §3

E. coli = assay: as above; type: cell-based; conditions: for MIC: Escherichia coli
Description: as §1, §2, §3

S. pneumoniae DNA gyrase = S. pneumoniae DNA gyrase (Streptococcus pneumoniae serotype 4, UniProt P0A4L9+P72524); assay: Catalytic inhibition of purified DNA gyrase; type: biochemical
Chain of S. pneumoniae DNA gyrase (P72524 whole entry): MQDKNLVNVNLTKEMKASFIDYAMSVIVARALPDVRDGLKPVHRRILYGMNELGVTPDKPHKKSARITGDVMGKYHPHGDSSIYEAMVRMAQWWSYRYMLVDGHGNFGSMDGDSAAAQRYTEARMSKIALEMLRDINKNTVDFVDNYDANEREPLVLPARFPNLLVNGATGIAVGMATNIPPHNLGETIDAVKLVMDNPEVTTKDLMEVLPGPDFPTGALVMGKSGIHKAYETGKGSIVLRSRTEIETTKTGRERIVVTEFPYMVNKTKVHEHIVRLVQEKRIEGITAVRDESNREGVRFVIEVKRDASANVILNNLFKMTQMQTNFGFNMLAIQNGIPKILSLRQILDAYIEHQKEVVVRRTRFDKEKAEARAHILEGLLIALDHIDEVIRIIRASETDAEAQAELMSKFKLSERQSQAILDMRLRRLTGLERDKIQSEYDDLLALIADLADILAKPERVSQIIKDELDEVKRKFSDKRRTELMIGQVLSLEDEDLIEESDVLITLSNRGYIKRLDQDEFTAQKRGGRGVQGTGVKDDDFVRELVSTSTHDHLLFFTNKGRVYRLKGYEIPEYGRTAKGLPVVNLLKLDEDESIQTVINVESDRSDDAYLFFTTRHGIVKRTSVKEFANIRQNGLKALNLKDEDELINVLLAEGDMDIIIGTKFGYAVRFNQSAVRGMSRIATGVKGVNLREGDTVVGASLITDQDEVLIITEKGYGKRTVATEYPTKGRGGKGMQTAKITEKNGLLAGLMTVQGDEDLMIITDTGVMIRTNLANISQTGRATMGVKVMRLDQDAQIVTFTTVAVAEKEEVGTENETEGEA
Chain of S. pneumoniae DNA gyrase (P0A4L9 whole entry): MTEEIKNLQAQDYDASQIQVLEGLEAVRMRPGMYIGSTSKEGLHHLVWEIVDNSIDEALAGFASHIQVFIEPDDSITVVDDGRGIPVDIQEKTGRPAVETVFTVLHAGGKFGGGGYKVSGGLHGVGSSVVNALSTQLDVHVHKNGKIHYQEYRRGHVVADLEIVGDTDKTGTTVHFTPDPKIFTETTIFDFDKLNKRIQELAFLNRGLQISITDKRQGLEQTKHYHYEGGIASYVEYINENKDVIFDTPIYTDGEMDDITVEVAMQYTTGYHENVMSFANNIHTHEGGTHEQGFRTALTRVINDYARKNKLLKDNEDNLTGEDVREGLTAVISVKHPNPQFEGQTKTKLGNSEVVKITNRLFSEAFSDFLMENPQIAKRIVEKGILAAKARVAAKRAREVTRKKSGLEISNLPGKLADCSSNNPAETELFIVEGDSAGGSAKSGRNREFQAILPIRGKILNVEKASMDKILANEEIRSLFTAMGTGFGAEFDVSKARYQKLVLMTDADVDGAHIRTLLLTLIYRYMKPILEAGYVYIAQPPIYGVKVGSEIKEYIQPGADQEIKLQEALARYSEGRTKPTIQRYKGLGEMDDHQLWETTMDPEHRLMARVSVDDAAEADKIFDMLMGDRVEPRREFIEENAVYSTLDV

[5] = 1324 clinical isolates of all species, Studies 373, 433, 434
[6] = Gram-negative bacteria (438 clinical isolates)
[7] = Gram-positive bacteria (886 clinical isolates)
[8] = 2nd step, NMO = No mutants obtained

With N[C@@H]1CCCCN(c2c(F)cc3c(=O)c(C(=O)O)cn(C4CC4)c3c2Cl)C1 [Besifloxacin, (R)-(+)-(3-amino-2,3,4,5,6,7-hexahydro-1H-azepin-1-yl)-8-chloro-1-cyclopropyl-6-fluoro-1,4,-dihydro-4-oxo-3-quinolinecarboxylic acid] the MIC50 [1, 5] was 0.06 µg/mL, the MIC90 [1, 5] was 0.25 µg/mL and the MIC50 [1, 6] was 0.03 µg/mL. For the same compound, the MIC90 [1, 6] was 0.5 µg/mL, the MIC50 [1, 7] was 0.06 µg/mL and the MIC90 [1, 7] was 0.25 µg/mL. For the same compound, the MIC90 ([1]; clinical isolates from Asia) was 1 µg/mL, the “dose at which an increase in QT duration was observed” value [2] was “at least 300 times the intended ocular daily dose” and the “heart rate, blood pressure, or cardiac conduction” value [2] was “no change”. The “increase of MIC of Visit 2 or Visit 3 isolates versus baseline” value ([3]; Study 373, 47 genetically concordant isolate pairs) was ≤ 2 fold, the “increase of MIC of Visit 2 or Visit 3 isolates versus baseline” value ([3]; Study 433, 122 genetically concordant isolate pairs) was ≤ 2 fold and the “increase of MIC of Visit 2 or Visit 3 isolates versus baseline” value ([3]; Study 434, 65 genetically concordant isolate pairs) was ≤ 2 fold. The non-clinical ocular tolerance [4] was “no adverse effects observed”, the “MPC (Mutant prevention concentration)” value (S. pneumoniae; 1st step) was 0.5 µg/mL and the “MSW (Mutant Selection Window)” value (S. pneumoniae; 1st step) was 0.12 to 0.25 µg/mL. For the same compound, the “Mutation rate at 4 × MIC” value (S. pneumoniae; 1st step) was <7 × 10^−10, the “MPC (Mutant prevention concentration)” value (S. pneumoniae; 2nd step) was 2 to 4 µg/mL and the “MSW (Mutant Selection Window)” value (S. pneumoniae; 2nd step) was 0.5 to 2 µg/mL. For the same compound, the “Mutation rate at 4 × MIC” value (S. pneumoniae; 2nd step) was 2.4 × 10^−8, the MIC (S. pneumoniae; 1st step) was 0.12 µg/mL (≈ 0.305 µM) and the MIC (S. pneumoniae; 2nd step) was 0.5 µg/mL (≈ 1.27 µM). The “frequency of drug-resistant (single, 1st step) mutants” value (S. pneumoniae; in vitro) was < 1 per 10^10 cells, the “MPC (Mutant prevention concentration)” value (S. aureus; 1st step) was 0.12 µg/mL and the “MSW (Mutant Selection Window)” value (S. aureus; 1st step) was 0.03 to 0.06 µg/mL. The “Mutation rate at 4 × MIC” value (S. aureus; 1st step) was 3.3 × 10^−10, the “MPC (Mutant prevention concentration)” value (S. aureus; 2nd step) was 0.25 µg/mL and the “MSW (Mutant Selection Window)” value (S. aureus; [8]) was “NMO”. For the same compound, the “Mutation rate at 4 × MIC” value (S. aureus; [8]) was “NMO”, the MIC (S. aureus; 1st step) was 0.03 µg/mL (≈ 0.0762 µM) and the MIC (S. aureus; 2nd step) was 0.25 µg/mL (≈ 0.635 µM). The “frequency of drug-resistant (single, 1st step) mutants” value (S. aureus; in vitro) was < 1 per 10^10 cells, the “MPC (Mutant prevention concentration)” value (E. coli; 1st step) was 4 µg/mL and the “MSW (Mutant Selection Window)” value (E. coli; 1st step) was 0.12 to 2 µg/mL. The “Mutation rate at 4 × MIC” value (E. coli; 1st step) was 3.8 × 10^−8, the “MPC (Mutant prevention concentration)” value (E. coli; 2nd step) was 16 µg/mL and the “MSW (Mutant Selection Window)” value (E. coli; 2nd step) was 2 to 8 µg/mL. The “Mutation rate at 4 × MIC” value (E. coli; 2nd step) was 6 × 10^−9, the MIC (E. coli; 1st step) was 0.12 µg/mL (≈ 0.305 µM) and the MIC (E. coli; 2nd step) was 2 µg/mL (≈ 5.08 µM). The “potency relative to ciprofloxacin and moxifloxacin (catalytic inhibition and cleavable complex stimulation)” value (S. pneumoniae DNA gyrase; S. pneumoniae DNA gyrase) was 4- to 16 fold, the pIC50 (S. pneumoniae DNA gyrase; S. pneumoniae enzymes) was 5.60 and the “difference between inhibitory concentrations for DNA gyrase and topoisomerase IV” value (S. pneumoniae DNA gyrase; S. pneumoniae enzymes) was 2.5 fold.
